According to US20220151962A1, “NOVEL INHIBITORS OF HISTONE DEACETYLASE 10” (Deutsches Krebsforschungszentrum, priority 2019, published 2022):

Assays:
HDAC2 = target: T1, HDAC2 (Homo sapiens, UniProt Q92769); assay: HDAC-Glo I/II assay, HDAC2; type: biochemical; conditions: recombinant human HDAC2, HDAC-Glo; for IC50: read-out: pIC50 HDAC2 Glo (converted)
T1 construct: purchased BPS Bioscience 50002

HDAC6 = target: T2, HDAC6 (Homo sapiens, UniProt Q9UBN7); assay: HDAC-Glo I/II assay, HDAC6; type: biochemical; conditions: recombinant human HDAC6, HDAC-Glo; read-out: pIC50 HDAC6 Glo (converted)
T2 construct: purchased BPS Bioscience 50006
T2 sequence (Q9UBN7 1-1215): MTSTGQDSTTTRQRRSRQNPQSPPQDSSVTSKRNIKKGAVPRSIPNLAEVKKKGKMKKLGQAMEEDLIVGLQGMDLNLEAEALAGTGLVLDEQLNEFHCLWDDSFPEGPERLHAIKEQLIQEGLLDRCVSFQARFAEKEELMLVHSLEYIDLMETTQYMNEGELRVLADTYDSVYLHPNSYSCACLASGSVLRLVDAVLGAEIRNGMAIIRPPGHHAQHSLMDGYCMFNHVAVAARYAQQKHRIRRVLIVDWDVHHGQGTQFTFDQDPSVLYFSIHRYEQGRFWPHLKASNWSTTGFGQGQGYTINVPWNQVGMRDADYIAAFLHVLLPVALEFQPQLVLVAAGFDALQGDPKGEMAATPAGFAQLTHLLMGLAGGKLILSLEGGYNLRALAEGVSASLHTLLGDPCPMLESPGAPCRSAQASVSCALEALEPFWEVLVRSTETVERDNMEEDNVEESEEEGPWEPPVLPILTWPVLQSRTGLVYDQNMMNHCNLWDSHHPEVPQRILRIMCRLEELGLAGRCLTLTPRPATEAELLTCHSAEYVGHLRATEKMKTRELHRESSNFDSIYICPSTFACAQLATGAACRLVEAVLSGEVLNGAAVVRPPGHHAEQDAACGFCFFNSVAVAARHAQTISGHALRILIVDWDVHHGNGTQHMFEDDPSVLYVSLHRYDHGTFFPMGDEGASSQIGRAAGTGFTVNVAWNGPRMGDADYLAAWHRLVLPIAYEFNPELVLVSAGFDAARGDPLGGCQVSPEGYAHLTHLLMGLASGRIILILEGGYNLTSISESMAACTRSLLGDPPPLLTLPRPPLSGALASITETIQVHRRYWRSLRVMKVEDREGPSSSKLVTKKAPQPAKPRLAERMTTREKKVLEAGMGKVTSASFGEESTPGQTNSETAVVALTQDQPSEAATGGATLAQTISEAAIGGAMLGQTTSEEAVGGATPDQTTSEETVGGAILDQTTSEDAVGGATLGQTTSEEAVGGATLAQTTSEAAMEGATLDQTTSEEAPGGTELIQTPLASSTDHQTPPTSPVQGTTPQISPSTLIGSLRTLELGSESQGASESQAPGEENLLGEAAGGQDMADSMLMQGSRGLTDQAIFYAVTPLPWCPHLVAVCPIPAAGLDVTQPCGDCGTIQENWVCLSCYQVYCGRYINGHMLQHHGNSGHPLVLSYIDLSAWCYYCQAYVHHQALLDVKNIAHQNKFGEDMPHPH

TwinStrep-GST-HDAC10 = target: T3, TwinStrep-GST-HDAC10 (Homo sapiens, UniProt Q969S8); assay: HDAC10 TR-FRET assay (Tubastatin-AF647-Tracer displacement); type: binding; conditions: TR-FRET, 60 min at rt; for IC50: read-out: pIC50 HDAC10 FRET (converted)
T3 construct: made in house; host or cells: Sf21 insect cells (baculovirus, pFastBac1)
T3 sequence (Q969S8 1-669): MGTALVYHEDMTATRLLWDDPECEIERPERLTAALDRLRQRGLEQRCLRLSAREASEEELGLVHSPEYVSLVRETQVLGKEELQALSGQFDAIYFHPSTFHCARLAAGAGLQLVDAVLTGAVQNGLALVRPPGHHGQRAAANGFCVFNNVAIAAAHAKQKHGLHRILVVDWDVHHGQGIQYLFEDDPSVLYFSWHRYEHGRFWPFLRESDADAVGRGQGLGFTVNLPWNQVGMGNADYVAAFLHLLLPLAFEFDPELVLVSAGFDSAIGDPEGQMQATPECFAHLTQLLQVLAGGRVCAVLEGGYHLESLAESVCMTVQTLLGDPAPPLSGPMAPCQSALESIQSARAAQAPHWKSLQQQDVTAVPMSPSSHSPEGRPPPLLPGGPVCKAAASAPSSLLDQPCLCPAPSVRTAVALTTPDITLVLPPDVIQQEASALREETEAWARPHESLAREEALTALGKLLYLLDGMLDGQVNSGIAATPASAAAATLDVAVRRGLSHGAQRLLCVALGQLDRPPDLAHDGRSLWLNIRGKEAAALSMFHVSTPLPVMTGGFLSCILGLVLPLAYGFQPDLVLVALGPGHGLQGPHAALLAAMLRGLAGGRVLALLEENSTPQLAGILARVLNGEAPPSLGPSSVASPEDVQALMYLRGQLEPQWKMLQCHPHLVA

HDAC1 = target: T4, HDAC1 (Homo sapiens, UniProt Q13547); assay: HDAC-Glo I/II assay, HDAC1; type: biochemical; conditions: recombinant human HDAC1, HDAC-Glo; for IC50: read-out: pIC50 HDAC1 Glo (converted)
T4 construct: purchased BPS Bioscience 50051

HDAC3/NcoR2 complex = target: T5, HDAC3/NcoR2 complex (Homo sapiens, UniProt O15379); assay: HDAC-Glo I/II assay, HDAC3/NcoR2 complex; type: biochemical; conditions: recombinant human HDAC3/NcoR2 complex; for IC50: read-out: pIC50 HDAC3 Glo (converted)
T5 construct: purchased BPS Bioscience 50003

HDAC8 = target: T6, HDAC8 (Homo sapiens, UniProt Q9BY41); assay: HDAC-Glo I/II assay, HDAC8; type: biochemical; set-up: purchased BPS Bioscience 50008; conditions: recombinant human HDAC8, HDAC-Glo; for IC50: read-out: pIC50 HDAC8 Glo (converted)
T6 sequence (Q9BY41 1-377): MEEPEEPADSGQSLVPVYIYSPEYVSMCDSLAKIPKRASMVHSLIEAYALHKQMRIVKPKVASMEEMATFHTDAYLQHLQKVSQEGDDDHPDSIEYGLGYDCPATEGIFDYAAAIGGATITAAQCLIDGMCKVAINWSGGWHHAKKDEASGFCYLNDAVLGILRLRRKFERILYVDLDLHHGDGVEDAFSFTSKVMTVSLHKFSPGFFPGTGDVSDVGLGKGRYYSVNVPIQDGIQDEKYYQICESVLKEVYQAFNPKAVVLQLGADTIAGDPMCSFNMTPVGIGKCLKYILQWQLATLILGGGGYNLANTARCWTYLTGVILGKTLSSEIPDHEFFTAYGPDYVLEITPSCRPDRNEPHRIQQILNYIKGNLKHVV

T4 sequence (Q13547 whole entry): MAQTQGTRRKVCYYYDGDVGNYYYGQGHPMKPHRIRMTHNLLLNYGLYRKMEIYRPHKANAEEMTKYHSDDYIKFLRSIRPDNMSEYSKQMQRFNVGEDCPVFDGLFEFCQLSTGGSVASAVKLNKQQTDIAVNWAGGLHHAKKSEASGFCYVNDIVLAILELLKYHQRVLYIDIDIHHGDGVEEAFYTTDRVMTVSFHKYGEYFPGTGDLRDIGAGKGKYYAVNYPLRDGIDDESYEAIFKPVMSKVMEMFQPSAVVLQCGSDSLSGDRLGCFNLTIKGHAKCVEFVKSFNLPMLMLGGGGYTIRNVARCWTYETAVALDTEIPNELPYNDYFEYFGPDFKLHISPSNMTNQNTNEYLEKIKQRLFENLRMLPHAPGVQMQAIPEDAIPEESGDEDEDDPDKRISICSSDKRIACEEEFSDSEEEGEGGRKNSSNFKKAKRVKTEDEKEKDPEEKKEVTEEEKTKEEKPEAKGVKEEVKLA
T1 sequence (Q92769 whole entry): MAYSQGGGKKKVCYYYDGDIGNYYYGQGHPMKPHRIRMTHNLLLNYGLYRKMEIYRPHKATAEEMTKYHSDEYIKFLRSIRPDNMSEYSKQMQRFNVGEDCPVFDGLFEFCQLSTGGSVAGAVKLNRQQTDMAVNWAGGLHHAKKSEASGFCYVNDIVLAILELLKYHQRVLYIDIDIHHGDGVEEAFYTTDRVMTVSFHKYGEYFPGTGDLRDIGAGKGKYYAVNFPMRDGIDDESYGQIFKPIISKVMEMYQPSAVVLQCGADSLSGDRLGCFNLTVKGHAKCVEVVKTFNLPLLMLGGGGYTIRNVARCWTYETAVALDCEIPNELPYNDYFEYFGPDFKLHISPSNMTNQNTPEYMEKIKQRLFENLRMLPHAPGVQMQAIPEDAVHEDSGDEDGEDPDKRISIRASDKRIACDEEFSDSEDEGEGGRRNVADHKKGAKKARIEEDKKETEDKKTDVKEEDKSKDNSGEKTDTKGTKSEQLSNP
T5 sequence (O15379 whole entry): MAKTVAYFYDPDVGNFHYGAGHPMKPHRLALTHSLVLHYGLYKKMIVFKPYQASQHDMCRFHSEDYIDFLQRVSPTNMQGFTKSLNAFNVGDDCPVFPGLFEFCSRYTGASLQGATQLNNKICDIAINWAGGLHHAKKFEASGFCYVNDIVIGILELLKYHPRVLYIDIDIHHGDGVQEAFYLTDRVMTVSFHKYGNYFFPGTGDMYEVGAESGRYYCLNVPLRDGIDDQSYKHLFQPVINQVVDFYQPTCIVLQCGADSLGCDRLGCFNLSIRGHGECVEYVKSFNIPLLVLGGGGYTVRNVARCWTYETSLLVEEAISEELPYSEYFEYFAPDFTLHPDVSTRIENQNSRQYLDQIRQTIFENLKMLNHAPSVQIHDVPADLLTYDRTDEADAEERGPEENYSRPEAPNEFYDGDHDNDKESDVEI
T5 sequence (Q9Y618 395-489 partner limits assumed): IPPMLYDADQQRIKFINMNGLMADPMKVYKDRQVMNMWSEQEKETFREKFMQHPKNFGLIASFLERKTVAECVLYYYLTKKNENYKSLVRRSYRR

Compound | IC50 (HDAC2) | IC50 (HDAC6) | IC50 (TwinStrep-GST-HDAC10) | IC50 (HDAC1) | IC50 (HDAC3/NcoR2 complex) | IC50 (HDAC8) | pIC50 HDAC2 Glo (HDAC2) | pIC50 HDAC10 FRET (TwinStrep-GST-HDAC10) | pIC50 HDAC1 Glo (HDAC1) | pIC50 HDAC3 Glo (HDAC3/NcoR2 complex) | pIC50 HDAC8 Glo (HDAC8)
CN(CCCC(=O)NO)CCNC(=O)c1cccc(N)c1 [DKFZ-747, 3-Amino-N-(2-((4-(hydroxyamino)-4-oxobutyl)(methyl)amino)ethyl)benzamide] | > 100 µM | 6.31 µM | 0.0398 µM | 25.1 µM | > 100 µM | 12.6 µM | – | – | – | – | –
CN(CCCC(=O)NO)CCNS(=O)(=O)c1ccccc1 [DKFZ-758, N-Hydroxy-4-(methyl(2-(phenylsulfonamido)ethyl)amino)butanamide] | > 100 µM | 6.31 µM | 0.0316 µM | 25.1 µM | > 100 µM | 6.31 µM | – | – | – | – | –
CN(CCCC(=O)NO)CCC(=O)Nc1ccccc1 [DKFZ-711] | – | – | – | – | 79.4 µM | 3.98 µM | – | – | – | – | –
CN(CCCC(=O)NO)CCNC(=O)c1ccc(O)c2ccccc12 [DKFZ-776, 4-Hydroxy-N-(2-((4-(hydroxyamino)-4-oxobutyl)(methyl)amino)ethyl)-1-naphthamide] | 15.8 µM | 0.631 µM | 0.00501 µM | 7.94 µM | > 100 µM | 2 µM | – | – | – | – | –
CN(CCCC(=O)NO)CCNC(=O)c1ccc(O)cc1 [DKFZ-751, 4-Hydroxy-N-(2-((4-(hydroxyamino)-4-oxobutyl)(methyl)amino)ethyl)benzamide] | > 100 µM | 2 µM | 0.00794 µM | 15.8 µM | > 100 µM | 25.1 µM | – | – | – | – | –
CN(CCCC(=O)NO)CCNC(=O)c1ccc2ccccc2c1 [DKFZ-769, N-(2-((4-(Hydroxyamino)-4-oxobutyl)(methyl)amino)ethyl)-2-naphthamide] | 5.01 µM | 1.26 µM | 0.00501 µM | 2.51 µM | ~39.8 µM | 1.58 µM | – | – | – | – | –
CN(CCCC(=O)NO)CCNC(=O)c1ccc(-c2ccccc2)cc1 [DKFZ-746, N-(2-((4-(Hydroxyamino)-4-oxobutyl)(methyl)amino)ethyl)-[1,1′-biphenyl]-4-carboxamide] | ~39.8 µM | 3.16 µM | 0.0251 µM | 2.51 µM | ~31.6 µM | 5.01 µM | – | – | – | – | –
CCN(CCCC(=O)NO)CCC(=O)Nc1ccccc1 [DKFZ-714, 4-(Ethyl(3-oxo-3-(phenylamino)propyl)amino)-N-hydroxybutanamide] | > 200 µM | 6.31 µM | – | 50.1 µM | ~158 µM | 5.01 µM | – | – | – | – | –
(1s,3s)-N-Hydroxy-3-((3-oxo-3-(phenylamino)propyl)amino)cyclobutanecarboxamide [DKFZ-767] | – | – | – | – | – | – | 4.6 | 6.9 | 4.9 | ~4.0 | 5.1
(1r,3r)-N-Hydroxy-3-((3-oxo-3-(phenylamino)propyl)amino)cyclobutanecarboxamide [DKFZ-759] | – | – | – | – | – | – | <4.0 | 6.3 | 4.4 | <4.0 | 4.9
CN(CCCC(=O)NO)CC(=O)Nc1ccccc1 [DKFZ-772, N-Hydroxy-4-(methyl(2-oxo-2-(phenylamino)ethyl)amino)butanamide] | 31.6 µM | – | – | 20 µM | > 100 µM | 2.51 µM | – | – | – | – | –

Further lines, with some results ahead:

IC50 (HDAC2) | IC50 (HDAC6) | IC50 (TwinStrep-GST-HDAC10) | IC50 (HDAC1) | IC50 (HDAC3/NcoR2 complex) | IC50 (HDAC8) | Compound | pIC50 HDAC2 Glo (HDAC2) | pIC50 HDAC10 FRET (TwinStrep-GST-HDAC10) | pIC50 HDAC1 Glo (HDAC1) | pIC50 HDAC3 Glo (HDAC3/NcoR2 complex) | pIC50 HDAC8 Glo (HDAC8)
50.1 µM | 12.6 µM | 0.00794 µM | ~39.8 µM | > 100 µM | 10 µM | CN(CCCC(=O)NO)CCCc1nc2ccccc2[nH]1 [DKFZ-805, 4-((3-(Benzimidazol-2-yl)propyl)(methyl)amino)-N-hydroxybutanamide] | – | – | – | – | –
> 100 µM | 3.16 µM | 0.00794 µM | 7.94 µM | > 100 µM | 12.6 µM | CN(CCCC(=O)NO)CCNC(=O)c1ccc2cn[nH]c2c1 [DKFZ-754, N-(2-((4-(Hydroxyamino)-4-oxobutyl)(methyl)amino)ethyl)-1H-indazole-6-carboxamide] | – | – | – | – | –
> 100 µM | 6.31 µM | 0.0158 µM | 25.1 µM | > 100 µM | 7.94 µM | CN(CCCC(=O)NO)CCNC(=O)c1ccccc1Br [DKFZ-753, 2-Bromo-N-(2-((4-(hydroxyamino)-4-oxobutyl)(methyl)amino)ethyl)benzamide] | – | – | – | – | –
> 100 µM | 1.58 µM | 0.02 µM | 7.94 µM | ~79.4 µM | 5.01 µM | Cc1[nH]c2ccccc2c1C(=O)NCCN(C)CCCC(=O)NO [DKFZ-756, N-(2-((4-(Hydroxyamino)-4-oxobutyl)(methyl)amino)ethyl)-2-methyl-1H-indole-3-carboxamide] | – | – | – | – | –
50.1 µM | – | – | – | > 100 µM | 15.8 µM | CN(CCCC(=O)NO)CCNC(=O)c1ccccc1 [DKFZ-728, N-(2-((4-(Hydroxyamino)-4-oxobutyl)(methyl)amino)ethyl)benzamide] | – | – | – | – | –
79.4 µM | 25.1 µM | 0.02 µM | 50.1 µM | > 100 µM | 25.1 µM | CN(CCCNC(=O)c1ccccc1)CCCC(=O)NO [DKFZ-806, N-(3-((4-(Hydroxyamino)-4-oxobutyl)(methyl)amino)propyl)benzamide] | – | – | – | – | –
> 100 µM | 12.6 µM | 0.0316 µM | 63.1 µM | > 100 µM | 63.1 µM | CN(CCCC(=O)NO)CCNC(=O)c1ccccc1O [DKFZ-755, 2-Hydroxy-N-(2-((4-(hydroxyamino)-4-oxobutyl)(methyl)amino)ethyl)benzamide] | – | – | – | – | –
